According to patent US12692264B2, “Pyrimidine or pyridine derivative, preparation method therefor, and application thereof in pharmacy” (ABBISKO THERAPEUTICS CO., LTD., priority 2021, dated 2026):

Legend:
Type in all cases: cell-based
A431 (EGFR-WT) = assay: Cell proliferation study (CellTiter-Glo, 72 hrs), A431; settings: Homo sapiens, A-431, A431 cells, CTG, * = average of multiple measurements
Experimental: (§1) (I) Reagents and Materials
(§2) • Fetal bovine serum FBS (GBICO, Cat #10099-141); • CellTiter-Glo® luminescent cell viability assay kit (Promega, Cat #G7572); • Black transparent flat-bottom 96-well plate (Corning®, Cat #3603). (II) Instruments • SpectraMax multi-label microplate reader MD, 2104-0010A; • Carbon dioxide incubator, Thermo Scientific 3100 series; • Biological safety cabinet, Thermo Scientific, 1300 series model A2; • Inverted microscope, Olympus, CKX41SF; • Siemens refrigerator KK25E76T1. (III) Cell Lines and Culture Conditions
(§3) (IV) Experimental Procedures 1. Cell Culture and Inoculation: • (1) Cells in the logarithmic growth phase were harvested and counted using a […]. The cell viability was determined by the trypan blue dye exclusion method to ensure cell viability above 90%. • (2) The cell concentration was adjusted to reach a desired final density; 90 μL of cell suspension was added to a 96-well plate. • (3) The cells were incubated overnight in the 96-well plate at 37° C., 5% CO2 and with 95% humidity. 2. T0 Benchmark Data: • (1) 10 μL of PBS was added to each well of the TO plate containing the cells. • (2) The CTG reagent was thawed and the cell plate was equilibrated to room temperature for 30 min. • (3) An equal volume of CTG solution was added to each well. • (4) The cells were lysed by shaking on an orbital shaker for 5 min. • (5) The cell plate was left to stand at room temperature for 20 min to stabilize the fluorescence signal. • (6) The fluorescence signal values of TO were read. 3. Dilution and Addition of Compounds • (1) According to the compound information table, a corresponding volume of DMSO was added to the corresponding compound powder to prepare a 10 mM stock solution. • (2) A 1000-fold, 3.16-fold-diluted compound solution was prepared. • (3) The 1000× diluted compound solution was diluted 100-fold with PBS to prepare a 10-fold compound solution with a maximum concentration of 10 μM, including 9 concentrations, with 3.16-fold dilution, and 10 μL of the medicament solution was added to each well of the 96-well plate to seed the cells. Triplicate wells were set for each compound concentration, with a final concentration of DMSO being 0.1%. • (4) The cells were placed in the 96-well plate containing the medicament at 37° C., 5% CO2 and with 95% humidity, and cultured for 72 hrs before CTG analysis. 4. Fluorescence Signal Reading • (1) The CTG reagent was thawed and the cell plate was equilibrated to room temperature for 30 min. • (2) An equal volume of CTG solution was added to each well. • (3) The cells were lysed by shaking on an orbital shaker for 5 min. • (4) The cell plate was left to stand at room temperature for 20 min to stabilize the fluorescence signal. • (5) The fluorescence values were read. 5. Data Processing
(§4) Data were analyzed using GraphPad Prism 7.0 software and fitted data were regressed using non-linear S-curves to obtain dose-response curves from which IC50 values (in nM) were calculated.

[1] = biological target: Ba/F3 EGFR-D770-N771ins_SVD (Homo sapiens, UniProt P00533, DUP768-770, cells depend on it); assay: Cell proliferation study (CellTiter-Glo, 72 hrs), Ba/F3 EGFR-D770-N771ins_SVD; settings: CTG, * = average of multiple measurements, read-out: Ba/F3 EGFR-D770-N771ins_SVD IC50
Ba/F3 EGFR-D770-N771ins_SVD, sequence (P00533 with tags, fused parts or gaps DUP768-770): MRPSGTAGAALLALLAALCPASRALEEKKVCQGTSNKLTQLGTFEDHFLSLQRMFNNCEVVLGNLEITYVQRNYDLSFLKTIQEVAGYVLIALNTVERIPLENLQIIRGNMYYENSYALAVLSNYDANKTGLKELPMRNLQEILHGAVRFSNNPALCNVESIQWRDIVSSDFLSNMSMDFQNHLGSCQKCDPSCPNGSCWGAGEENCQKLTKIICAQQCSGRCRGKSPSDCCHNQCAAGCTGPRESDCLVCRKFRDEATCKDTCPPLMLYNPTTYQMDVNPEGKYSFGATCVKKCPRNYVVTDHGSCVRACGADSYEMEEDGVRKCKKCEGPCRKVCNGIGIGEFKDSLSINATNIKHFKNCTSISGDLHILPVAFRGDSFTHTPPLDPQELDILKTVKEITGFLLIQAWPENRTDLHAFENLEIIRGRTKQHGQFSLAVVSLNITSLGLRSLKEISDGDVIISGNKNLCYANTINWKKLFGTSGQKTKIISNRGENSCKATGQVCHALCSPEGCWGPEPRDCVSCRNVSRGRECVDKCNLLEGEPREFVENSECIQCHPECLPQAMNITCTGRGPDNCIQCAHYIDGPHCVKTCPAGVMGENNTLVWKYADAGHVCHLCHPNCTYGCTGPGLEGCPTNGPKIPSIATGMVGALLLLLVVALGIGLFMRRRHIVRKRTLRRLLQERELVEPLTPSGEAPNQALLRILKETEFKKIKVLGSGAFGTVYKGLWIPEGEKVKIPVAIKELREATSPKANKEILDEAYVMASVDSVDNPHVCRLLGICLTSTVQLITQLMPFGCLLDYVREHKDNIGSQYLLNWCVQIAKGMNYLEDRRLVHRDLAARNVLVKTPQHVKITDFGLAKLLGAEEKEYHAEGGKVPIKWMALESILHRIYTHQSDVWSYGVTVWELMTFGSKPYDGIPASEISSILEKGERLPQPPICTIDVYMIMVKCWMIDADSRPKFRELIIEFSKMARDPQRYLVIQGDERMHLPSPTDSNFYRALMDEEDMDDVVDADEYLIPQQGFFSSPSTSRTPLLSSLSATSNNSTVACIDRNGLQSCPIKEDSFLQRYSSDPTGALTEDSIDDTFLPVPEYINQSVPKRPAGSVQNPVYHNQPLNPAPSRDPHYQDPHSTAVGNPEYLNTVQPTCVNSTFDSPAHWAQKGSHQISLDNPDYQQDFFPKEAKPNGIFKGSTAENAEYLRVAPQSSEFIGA
Experimental: as §1, §2, §3, §4

[2] = biological target: Ba/F3 EGFR-V769_D770insASV (Homo sapiens, UniProt P00533, DUP767-769, cells depend on it); assay: Cell proliferation study (CellTiter-Glo, 72 hrs), Ba/F3 EGFR-V769_D770insASV; settings: CTG, * = average of multiple measurements, read-out: Ba/F3 EGFR-V769_D770insASV IC50
Ba/F3 EGFR-V769_D770insASV, sequence (P00533 with tags, fused parts or gaps DUP767-769): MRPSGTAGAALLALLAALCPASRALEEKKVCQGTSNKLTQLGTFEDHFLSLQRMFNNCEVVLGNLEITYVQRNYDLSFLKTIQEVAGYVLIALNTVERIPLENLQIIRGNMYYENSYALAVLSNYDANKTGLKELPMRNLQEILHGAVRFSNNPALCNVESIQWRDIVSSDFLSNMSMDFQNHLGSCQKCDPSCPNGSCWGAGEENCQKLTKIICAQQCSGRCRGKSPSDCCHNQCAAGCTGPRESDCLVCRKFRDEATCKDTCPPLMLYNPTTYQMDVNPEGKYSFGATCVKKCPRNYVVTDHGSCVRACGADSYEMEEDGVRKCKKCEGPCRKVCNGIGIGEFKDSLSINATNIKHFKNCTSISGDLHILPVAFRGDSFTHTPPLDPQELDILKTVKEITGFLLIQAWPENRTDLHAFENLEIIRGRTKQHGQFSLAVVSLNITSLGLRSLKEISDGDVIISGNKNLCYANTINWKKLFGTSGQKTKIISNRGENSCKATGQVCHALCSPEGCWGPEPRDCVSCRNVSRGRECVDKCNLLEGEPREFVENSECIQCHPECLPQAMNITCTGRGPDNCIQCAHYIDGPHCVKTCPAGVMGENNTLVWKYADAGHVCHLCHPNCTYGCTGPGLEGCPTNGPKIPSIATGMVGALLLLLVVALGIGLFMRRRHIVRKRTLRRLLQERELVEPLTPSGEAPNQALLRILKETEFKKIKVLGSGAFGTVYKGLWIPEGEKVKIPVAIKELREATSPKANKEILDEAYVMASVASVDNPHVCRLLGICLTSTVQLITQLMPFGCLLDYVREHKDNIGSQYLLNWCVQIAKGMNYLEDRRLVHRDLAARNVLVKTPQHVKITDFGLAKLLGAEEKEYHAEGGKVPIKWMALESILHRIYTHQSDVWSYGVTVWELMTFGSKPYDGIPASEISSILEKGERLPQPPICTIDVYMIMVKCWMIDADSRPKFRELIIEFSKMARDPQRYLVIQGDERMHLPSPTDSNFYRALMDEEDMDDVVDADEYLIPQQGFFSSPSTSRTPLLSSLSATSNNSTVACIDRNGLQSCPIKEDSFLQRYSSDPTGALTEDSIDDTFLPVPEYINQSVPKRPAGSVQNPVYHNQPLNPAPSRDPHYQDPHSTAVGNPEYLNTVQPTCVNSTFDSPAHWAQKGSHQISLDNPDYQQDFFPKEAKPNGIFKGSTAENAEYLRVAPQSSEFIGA
Experimental: as §1, §2, §3, §4

SMILES | IC50 (A431 (EGFR-WT)) | GI50 [1] | GI50 [2]
C=CC(=O)Nc1cc(Nc2ncc(C(=O)OC(C)C)c(N3CC(C)(C)c4ncccc43)n2)c(OC(F)F)cc1N(C)CCN(C)C [Example 3, isopropyl 2-((5-acrylamido-2-(difluoromethoxy)-4-((2-(dimethylamino)ethyl)(methyl)ami-no)phenyl)amino)-4-(3,3-dimethyl-2,3-dibydro-1H-pyrrolo[3,2-b]pyridin-1-yl)pyrimidine-5-carboxylate] | 0.371 µM | 0.0232 µM | 0.0331 µM
C#Cc1ccc2c(n1)C(C)(C)CN2c1nc(Nc2cc(NC(=O)C=C)c(N(C)CCN(C)C)cc2OC)ncc1C(=O)OC(C)C [Example 9, isopropyl 2-((5-acrylamido-4-((2-(dimethylamino)ethyl)(methyl)amino)-2-methoxyphenyl)amino)-4-(5-ethynyl-3,3-dimethyl-2,3-dihydro-1H-pyrrolo[3,2-b]pyridin-1-yl)pyrimidine-5-carboxylate] | 0.0233 µM | 0.0178 µM | 0.0318 µM
C=CC(=O)Nc1cc(Nc2ncc(C(=O)OC(C)C)c(N3CC(C)(C)c4nc(C)ccc43)n2)c(OC)cc1N(C)CCN(C)C [Example 1, isopropyl 2-((5-acrylamido-4-((2-(dimethylamino)ethyl)(methyl)amino)-2-methoxyphenyl)amino)-4-(3,3,5-trimethyl-2,3-dihydro-1H-pyrrolo[3,2-b]pyridin-1-yl)pyrimidine-5-carboxylate] | 0.105 µM | 0.007 µM | 0.0104 µM
C=CC(=O)Nc1cc(Nc2ncc(C(=O)OC(C)C)c(N3CC(C)(C)c4nc(C)ccc43)n2)c(OC)cc1N(C)CCN(CC)CC [Example 56, isopropyl 2-((5-acrylamido-4-((2-(diethylami-no)ethyl)(methyl)amino)-2-methoxy-phenyl)amino)-4-(3,3,5-trimethyl-2,3-dihydro-1H-pyrrolo[3,2-b]pyridin-1-yl)pyrimidine-5-carboxylate] | 0.301 µM | 0.0335 µM | 0.0911 µM
C=CC(=O)Nc1cc(Nc2ncc(C(=O)OC(C)C)c(N3CC4(CCC4)c4nc(-c5cnn(C)c5)ccc43)n2)c(OC)cc1N(C)CCN(C)C [Example 10, isopropyl 2-((5-acrylamido-4-((2-(dimethylami-no)ethyl)(methyl)amino)-2-methoxy-phenyl)amino)-4-(5′-(1-methyl-1H-pyrazol-4-yl)spiro(cyclobutane-1,3′-pyrrolo[3,2-b]pyridin)-1′(2′H)-yl)pyrimidine-5-carboxylate] | 0.278 µM | 0.0369 µM | 0.0394 µM
[2H]C([2H])([2H])Oc1cc(N(CCN(C([2H])([2H])[2H])C([2H])([2H])[2H])C([2H])([2H])[2H])c(NC(=O)C=C)cc1Nc1ncc(C(=O)OC(C)C)c(N2CC(C)(C)c3nc(C)ccc32)n1 [Example 72, isopropyl 2-((5-acrylamido-4-((2-(bis(methyl-d3)amino)ethyl)(methyl-d3)amino)-2-(methoxy-d3)phenyl)amino)-4-(3,3,5-trimethyl-2,3-dihydro-1H-pyrrolo[3,2-b]pyridin-1-yl)pyrimidine-5-carboxylate] | 0.12 µM | 0.0248 µM | 0.0353 µM
C=CC(=O)Nc1cc(Nc2ncc(C(=O)OC(C)C)c(N3CC(C)(C)c4nc(C#CC)ccc43)n2)c(OC)cc1N(C)CCN(CC)CC [Example 89, isopropyl 2-((5-acrylamido-4-((2-(diethyl-amino)ethyl)(methyl)amino)-2-methoxyphenyl)amino)-4-(3,3-dimethyl-5-(prop-1-yn-1-yl)-2,3-dihydro-1H-pyrrolo[3,2-b]pyridin-1-yl)pyrimidine-5-carboxylate] | 0.177 µM | 0.0131 µM | 0.242 µM
C=CC(=O)Nc1cc(Nc2ncc(C(=O)OC(C)C)c(N3CC(C)(C)c4nc(C#CC)ccc43)n2)c(OC)cc1N1CC[C@@H](N(C)C)C1 [Example 74, isopropyl (R)-2-((5-acrylamido-4-(3-(dimethyl-amino)pyrrolidin-1-yl)-2-methoxy-phenyl)amino)-4-(3,3-dimethyl-5-(prop-1-yn-1-yl)-2,3-dihydro-1H-pyrrolo[3,2-b]pyridin-1-yl)pyrimidine-5-carboxylate] | 0.0993 µM | 0.0155 µM | 0.0436 µM
C=CC(=O)Nc1cc(Nc2ncc(C(=O)OC(C)C)c(N3CC(C)(C)c4nc(C)ccc43)n2)c(OC)cc1N(C)CCN1CCCC1 [Example 66, isopropyl 2-((5-acrylamido-2-methoxy-4-(methyl(2-(pyrrolidin-1-yl)ethyl)amino)phenyl)amino)-4-(3,3,5-trimethyl-2,3-dihydro-1H-pyrrolo[3,2-b]pyridin-1-yl)pyrimidine-5-carboxylate] |  | 0.0169 µM | 0.0272 µM

Other lines, results leading:

IC50 (A431 (EGFR-WT)) | GI50 [1] | GI50 [2] | SMILES
0.282 µM | 0.0133 µM | 0.016 µM | C=CC(=O)Nc1cc(Nc2ncc(C(=O)OC(C)C)c(N3CC(C)(C)c4nc(C)ccc43)n2)c(OC)nc1N(C)CCN(C)C [Example 29, isopropyl 2-((5-acrylamido-6-((2-(dimethylami-no)ethyl)(methyl)amino)-2-methoxy-pyridin-3-yl)amino)-4-(3,3,5-trimethyl-2,3-dihydro-1H-pyrrolo[3,2-b]pyridin-1-yl)pyrimidine-5-carboxylate]
0.12 µM | 0.0123 µM | 0.016 µM | C=CC(=O)Nc1cc(Nc2ncc(C(=O)OC(C)C)c(N3CC(C)(C)c4nc(C)ccc43)n2)c(OC)cc1N(C)C[C@H]1CCCN1C [Example 62, isopropyl (R)-2-((5-acrylamido-2-methoxy-4-(methyl((1-methylpyrrolidin-2-yl)methyl)amino)phenyl)amino)-4-(3,3,5-trimethyl-2,3-dihydro-1H-pyrrolo[3,2-b]pyridin-1-yl)pyrimidine-5-carboxylate]
0.27 µM | 0.0205 µM | 0.0335 µM | C=CC(=O)Nc1cc(Nc2ncc(C(=O)OC(C)C)c(N3CC(C)(C)c4nc(C)ccc43)n2)c(OC)nc1N(C)C[C@@H]1CCCN1C [Example 46, isopropyl (S)-2-((5-acrylamido-2-methoxy-6-(methyl((1-methylpyrrolidin-2-yl)methyl)amino)pyridin-3-yl)amino)-4-(3,3,5-trimethyl-2,3-dihydro-1H-pyrrolo[3,2-b]pyridin-1-yl)pyrimidine-5-carboxylate]
0.057 µM | 0.0109 µM | 0.0136 µM | C=CC(=O)Nc1cc(Nc2ncc(C(=O)OC(C)C)c(N3CC(C)(C)c4nc(C)ccc43)n2)c(OC)cc1N1CCC[C@@H]1CN(C)C [Example 83, isopropyl (R)-2-((5-acrylamido-4-(2-((dimethyl-amino)methyl)pyrrolidin-1-yl)-2-meth-oxyphenyl)amino)-4-(3,3,5-trimethyl-2,3-dihydro-1H-pyrrolo[3,2-b]pyridin-1-yl)pyrimidine-5-carboxylate]
0.185 µM | 0.0241 µM | 0.0619 µM | [2H]C1([2H])N(c2nc(Nc3cc(NC(=O)C=C)c(N(C)C[C@@H]4CCCN4C)cc3OC)ncc2C(=O)OC(C)C)c2ccc(C)nc2C1(C)C [Example 52, isopropyl (S)-2-((5-acrylamido-2-methoxy-4-(methyl((1-methylpyrrolidin-2-yl)methyl)amino)phenyl)amino)-4-(3,3,5-trimethyl-2,3-dihydro-1H-pyrrolo[3,2-b]pyridin-1-yl-2,2-d2)pyrimidine-5-carboxylate]
0.282 µM | 0.039 µM | 0.0344 µM | C=CC(=O)Nc1cc(Nc2ncc(C(=O)OC(C)C)c(N3CC4(CC4)c4nc(C)ccc43)n2)c(OC)cc1NCCN(C)C [Example 65, isopropyl 2-((5-acrylamido-4-((2-(dimethylami-no)ethyl)amino)-2-methoxy-phenyl)amino)-4-(5′-methylspiro(cyclo-propane-1,3′-pyrrolo[3,2-b]pyridin)-1′(2′H)-yl)pyrimidine-5-carboxylate]
